The text below walks through data of ChEMBL document CHEMBL1201862, “PubChem BioAssay data set” (2004).

The nature of experiment [1]: HEK-293T viability loss after treatment – luminescence, T-cell screen hits, cytotoxicity control for TCR NF-kB inhibitor project, dose response (AID 489026).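 Also: cells exposed to compound about 14 hours before the viability readout.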 The class given is functional, cell-based.
The nature of experiment [2]: loss of viability in HepG2 cells – cell-based, CellTiter-Glo, cherry-picked, cytotoxicity control for Shn3 inhibitor project, dose response (AID 624134). It counts as functional. On the technique in general: Cellular ATP, detected with luciferase, serves as a proxy for viable cell number.
Experiment [3] concerns the target Sphingosine 1-phosphate receptor 1 (Homo sapiens, UniProt P21453). It counts as functional.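 Also: Tango beta-arrestin reporter U2OS cells stimulated with S1P near its EC80; inhibitor potency meaning antagonism of receptor activation by the natural agonist.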
Experiment [4] addresses Photoreceptor-specific nuclear receptor (Homo sapiens, UniProt Q9Y5X4). It counts as functional, cell-based.
The target of a further experiment is Fatty acid synthase (Homo sapiens, UniProt P49327). The experiment can be described thus: inhibition of human FAS-TE enzyme activity – biochemical, endpoint fluorescence intensity, uHTS hits, dose response (AID 624327).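 Also: fluorescence from hydrolysis of an O-methyl fluorescein acyl ester substrate by the enzyme.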 The class given is functional.
Experiment [5] deals with T1, Heat shock factor protein 1 (Mus musculus, UniProt P38532).
T1 sequence (P38532 whole entry): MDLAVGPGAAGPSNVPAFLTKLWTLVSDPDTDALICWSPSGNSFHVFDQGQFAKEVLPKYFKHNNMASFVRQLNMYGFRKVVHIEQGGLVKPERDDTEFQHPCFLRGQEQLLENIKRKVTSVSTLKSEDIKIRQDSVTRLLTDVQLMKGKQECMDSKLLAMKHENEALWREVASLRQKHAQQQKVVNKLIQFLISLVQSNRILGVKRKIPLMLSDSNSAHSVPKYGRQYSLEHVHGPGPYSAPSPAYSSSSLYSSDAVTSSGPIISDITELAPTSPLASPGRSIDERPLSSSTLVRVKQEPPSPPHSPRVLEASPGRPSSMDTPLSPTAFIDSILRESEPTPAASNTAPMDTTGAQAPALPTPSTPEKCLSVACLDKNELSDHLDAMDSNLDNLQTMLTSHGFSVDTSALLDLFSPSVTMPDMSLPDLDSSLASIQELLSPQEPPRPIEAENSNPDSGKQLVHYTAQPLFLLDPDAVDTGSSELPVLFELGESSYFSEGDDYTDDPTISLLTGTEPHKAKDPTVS
The experiment can be described thus: decrease of HSF1-responsive luciferase luminescence – cell-based, NIH3T3, dose retest, confirmation (AID 2382).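 Also: NIH3T3 fibroblasts with HSF1-driven luciferase reporter stressed by proteasome inhibitor MG132; luminescence from HSF1-driven luciferase expression after 8 hours of MG132 stress.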 It counts as functional.

For the next experiment, the system named is INS1. The experiment can be described thus: INS-1E survival protection against cytokine death – cell-based, luminescence, retest, dose response (AID 449756).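 Also: cell death triggered by IL-1 beta plus TNF-alpha plus IFN-gamma mixture; protective hits raise ATP signal compared with cytokine alone wells.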 The following applies: Rattus norvegicus. The class given is functional.
In the next experiment the test system is CHO. The experiment can be described thus: CHO cell viability loss, potency – luminescence, cytotoxicity control for TLR9-MyD88 binding inhibitor project, dose response (AID 588339).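 Also: CHO cells stably coexpressing TLR9 and MyD88 fusions from primary screen; compound exposure lasted 48 hours before viability readout.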 As to conditions: Cricetulus griseus. It counts as functional, cell-based, hamster.
For experiment [6], the target named is T2, Sentrin-specific protease 8 (Homo sapiens, UniProt Q96LD8).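 Also: luminescence read-out of SENP8 inhibition, dose-response confirmation following an ultra-high-throughput screen.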
T2 sequence (Q96LD8 whole entry): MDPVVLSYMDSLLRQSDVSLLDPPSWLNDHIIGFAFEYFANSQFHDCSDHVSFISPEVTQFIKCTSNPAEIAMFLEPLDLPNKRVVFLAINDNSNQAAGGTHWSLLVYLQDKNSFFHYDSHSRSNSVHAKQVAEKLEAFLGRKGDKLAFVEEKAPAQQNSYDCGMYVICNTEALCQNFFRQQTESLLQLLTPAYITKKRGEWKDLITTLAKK
It counts as functional.

The target in experiment [7] is Tyrosyl-DNA phosphodiesterase 2 (Homo sapiens, UniProt O95551). The experiment is described as follows: potency against TDP2 phosphodiesterase activity – biochemical, epi absorbance, IC50, dose response (AID 743297).
A short description of experiment [8]: viability of HCT116 lacking mutant beta-catenin – cell-based, human colon tumor, dose response (AID 1045).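 Also: HCT116 colon tumor cells with beta catenin knocked out; cells exposed to compound for 60 hours.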 The class given is functional.
Experiment [9] has as its target Voltage-gated N-type calcium channel alpha-1B subunit/Amyloid beta A4 precursor protein-binding family A member 1 (Homo sapiens, UniProt Q00975+Q02410). It counts as protein assay.
Another experiment addresses Genome polyprotein (dengue virus type 2, UniProt P29990). The experiment can be described thus: flavivirus cap methylation enzyme inhibition – biochemical, confirmation dose response, primary screen (AID 588689). It counts as functional.
Another experiment has as its target T3, Protein skinhead-1 (Caenorhabditis elegans, UniProt P34707).
T3 sequence (P34707 whole entry): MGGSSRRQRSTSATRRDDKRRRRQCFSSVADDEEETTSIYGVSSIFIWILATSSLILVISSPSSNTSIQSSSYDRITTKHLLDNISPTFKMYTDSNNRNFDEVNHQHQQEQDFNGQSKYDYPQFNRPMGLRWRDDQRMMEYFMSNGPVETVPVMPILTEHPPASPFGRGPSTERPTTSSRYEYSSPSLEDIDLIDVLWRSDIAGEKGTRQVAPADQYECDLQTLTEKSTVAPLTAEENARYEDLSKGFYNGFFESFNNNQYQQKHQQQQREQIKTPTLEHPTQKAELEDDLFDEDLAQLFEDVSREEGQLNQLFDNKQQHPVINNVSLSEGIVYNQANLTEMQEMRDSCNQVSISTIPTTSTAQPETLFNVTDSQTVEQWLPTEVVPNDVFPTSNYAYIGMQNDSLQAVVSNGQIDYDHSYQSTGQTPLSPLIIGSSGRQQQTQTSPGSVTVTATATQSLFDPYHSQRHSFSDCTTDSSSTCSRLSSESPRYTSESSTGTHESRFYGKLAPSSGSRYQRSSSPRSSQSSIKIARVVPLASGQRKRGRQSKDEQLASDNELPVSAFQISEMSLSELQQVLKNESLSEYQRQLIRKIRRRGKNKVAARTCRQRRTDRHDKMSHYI
It counts as functional.

For another experiment, the target named is T4, Cysteine protease ATG4B (Homo sapiens, UniProt Q9Y4P1).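 Also: Fluorescence-based dose-response confirmation assay measuring inhibition of ATG4B activity.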
T4 sequence (Q9Y4P1 whole entry): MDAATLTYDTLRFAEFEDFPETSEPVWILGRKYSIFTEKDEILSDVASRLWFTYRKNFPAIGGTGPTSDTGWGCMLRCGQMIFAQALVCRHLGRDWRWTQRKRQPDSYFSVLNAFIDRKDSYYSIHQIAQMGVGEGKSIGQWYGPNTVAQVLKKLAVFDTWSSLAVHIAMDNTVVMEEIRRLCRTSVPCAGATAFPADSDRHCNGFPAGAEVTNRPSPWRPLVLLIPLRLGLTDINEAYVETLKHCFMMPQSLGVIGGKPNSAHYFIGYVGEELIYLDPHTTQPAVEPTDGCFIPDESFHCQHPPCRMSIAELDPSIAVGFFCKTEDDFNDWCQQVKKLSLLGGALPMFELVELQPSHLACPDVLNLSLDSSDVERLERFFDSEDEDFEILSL
It counts as functional.

Experiment [10] in a line: blockers of HIV-1 envelope-mediated cell-cell fusion – cherry-pick, dose response (AID 652057). It counts as functional, cell-based.
The nature of experiment [11]: NIH3T3 cell viability loss – ATP luminescence, mouse fibroblasts, counter-screen, dose response (AID 2010).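 Also: cells exposed to compound for about 90 hours before reading.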 The class given is functional, cell-based. (In general: The purpose of a counterscreen is to sort out artefacts and off-target activity.)
Experiment [12] deals with Eukaryotic translation initiation factor 4E (Mus musculus, UniProt P63073). The experiment can be described thus: blockers of eIF4G binding by eIF4E – biochemical, TR-FRET, dose response (AID 855).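 Also: potency for disrupting eIF4E binding to eIF4GI seen as loss of FRET.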 The class given is functional. (In general: In TR-FRET formats the signal depends on donor and acceptor labels being close together.)
Experiment [13] is described as follows: viability loss in CEM21 cells – cell-based, CellTiter-Glo luminescence, cherry-picked, cytotoxicity control for viral fusion inhibitor project, dose response (AID 652042).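 Also: potency for signal decrease meaning cytotoxicity.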 The class given is functional.
A short description of experiment [14]: HIV-1 AD8 envelope cell-cell fusion blockers – cherry-pick, dose response (AID 652062).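 Also: luciferase signal from cell-cell fusion driven by HIV-1 clade B AD8 Env; potency is for inhibitors of fusion seen as a drop in luminescence.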 The class given is functional, cell-based.

Calls of active or inactive are those of the source.

Voltage-gated N-type calcium channel alpha-1B subunit/Amyloid beta A4 precursor protein-binding family A member 1, sequence (Q00975 whole entry): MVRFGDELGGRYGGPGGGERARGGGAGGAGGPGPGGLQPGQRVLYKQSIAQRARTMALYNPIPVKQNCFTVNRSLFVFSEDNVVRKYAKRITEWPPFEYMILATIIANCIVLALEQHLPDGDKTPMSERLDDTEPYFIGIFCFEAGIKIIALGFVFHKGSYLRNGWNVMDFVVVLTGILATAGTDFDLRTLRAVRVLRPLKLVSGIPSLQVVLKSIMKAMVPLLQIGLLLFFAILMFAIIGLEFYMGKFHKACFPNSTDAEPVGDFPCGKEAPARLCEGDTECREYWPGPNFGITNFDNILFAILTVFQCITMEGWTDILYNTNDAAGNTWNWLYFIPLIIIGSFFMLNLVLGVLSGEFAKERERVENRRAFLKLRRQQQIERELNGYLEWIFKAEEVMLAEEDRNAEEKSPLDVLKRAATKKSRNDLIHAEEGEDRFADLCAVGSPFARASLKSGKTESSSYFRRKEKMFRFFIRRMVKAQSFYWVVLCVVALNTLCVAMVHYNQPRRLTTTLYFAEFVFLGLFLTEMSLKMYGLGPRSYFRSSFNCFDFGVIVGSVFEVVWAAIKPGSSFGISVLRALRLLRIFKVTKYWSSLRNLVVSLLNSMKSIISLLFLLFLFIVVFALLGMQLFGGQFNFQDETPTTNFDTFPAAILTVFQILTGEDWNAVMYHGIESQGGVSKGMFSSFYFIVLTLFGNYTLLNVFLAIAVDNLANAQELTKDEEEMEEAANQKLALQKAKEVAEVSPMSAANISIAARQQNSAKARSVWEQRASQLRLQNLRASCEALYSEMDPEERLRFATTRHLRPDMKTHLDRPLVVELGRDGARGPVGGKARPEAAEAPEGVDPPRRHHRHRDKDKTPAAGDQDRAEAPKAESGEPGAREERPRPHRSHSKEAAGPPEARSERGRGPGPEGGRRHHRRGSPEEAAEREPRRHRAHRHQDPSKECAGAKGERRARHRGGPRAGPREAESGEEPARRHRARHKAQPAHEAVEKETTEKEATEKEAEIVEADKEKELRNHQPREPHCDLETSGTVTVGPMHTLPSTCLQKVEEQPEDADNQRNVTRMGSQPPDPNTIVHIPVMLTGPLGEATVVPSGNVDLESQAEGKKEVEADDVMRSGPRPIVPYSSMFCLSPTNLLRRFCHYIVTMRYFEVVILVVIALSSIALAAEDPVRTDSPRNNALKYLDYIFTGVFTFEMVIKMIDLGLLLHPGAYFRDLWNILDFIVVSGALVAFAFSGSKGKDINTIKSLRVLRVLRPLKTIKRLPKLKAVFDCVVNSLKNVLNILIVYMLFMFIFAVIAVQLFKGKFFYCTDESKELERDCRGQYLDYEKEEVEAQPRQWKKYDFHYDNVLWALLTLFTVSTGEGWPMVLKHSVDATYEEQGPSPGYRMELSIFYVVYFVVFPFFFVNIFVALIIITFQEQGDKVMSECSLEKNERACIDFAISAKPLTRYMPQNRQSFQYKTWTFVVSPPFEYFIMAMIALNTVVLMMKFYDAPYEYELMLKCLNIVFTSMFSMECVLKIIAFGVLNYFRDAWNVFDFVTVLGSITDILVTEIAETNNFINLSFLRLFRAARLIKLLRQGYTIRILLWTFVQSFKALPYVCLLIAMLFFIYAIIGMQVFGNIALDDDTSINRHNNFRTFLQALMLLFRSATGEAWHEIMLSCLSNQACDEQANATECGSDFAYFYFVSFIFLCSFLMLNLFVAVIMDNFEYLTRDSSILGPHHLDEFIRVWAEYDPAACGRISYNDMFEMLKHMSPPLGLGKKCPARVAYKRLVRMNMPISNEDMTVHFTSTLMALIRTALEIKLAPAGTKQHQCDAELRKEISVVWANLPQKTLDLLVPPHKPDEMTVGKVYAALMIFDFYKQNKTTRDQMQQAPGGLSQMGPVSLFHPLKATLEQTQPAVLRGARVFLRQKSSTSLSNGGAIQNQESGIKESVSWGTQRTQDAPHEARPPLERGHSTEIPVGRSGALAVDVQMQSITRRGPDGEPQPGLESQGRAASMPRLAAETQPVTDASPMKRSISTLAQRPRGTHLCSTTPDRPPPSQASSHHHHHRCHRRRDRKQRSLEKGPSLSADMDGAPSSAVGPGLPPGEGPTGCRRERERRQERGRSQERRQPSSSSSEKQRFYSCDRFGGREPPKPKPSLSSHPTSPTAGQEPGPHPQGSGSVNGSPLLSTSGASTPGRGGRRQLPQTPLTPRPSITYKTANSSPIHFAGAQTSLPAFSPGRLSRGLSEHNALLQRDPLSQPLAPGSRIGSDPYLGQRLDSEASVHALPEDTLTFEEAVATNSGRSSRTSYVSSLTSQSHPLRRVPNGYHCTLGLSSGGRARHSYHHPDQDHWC
Voltage-gated N-type calcium channel alpha-1B subunit/Amyloid beta A4 precursor protein-binding family A member 1, sequence (Q02410 whole entry): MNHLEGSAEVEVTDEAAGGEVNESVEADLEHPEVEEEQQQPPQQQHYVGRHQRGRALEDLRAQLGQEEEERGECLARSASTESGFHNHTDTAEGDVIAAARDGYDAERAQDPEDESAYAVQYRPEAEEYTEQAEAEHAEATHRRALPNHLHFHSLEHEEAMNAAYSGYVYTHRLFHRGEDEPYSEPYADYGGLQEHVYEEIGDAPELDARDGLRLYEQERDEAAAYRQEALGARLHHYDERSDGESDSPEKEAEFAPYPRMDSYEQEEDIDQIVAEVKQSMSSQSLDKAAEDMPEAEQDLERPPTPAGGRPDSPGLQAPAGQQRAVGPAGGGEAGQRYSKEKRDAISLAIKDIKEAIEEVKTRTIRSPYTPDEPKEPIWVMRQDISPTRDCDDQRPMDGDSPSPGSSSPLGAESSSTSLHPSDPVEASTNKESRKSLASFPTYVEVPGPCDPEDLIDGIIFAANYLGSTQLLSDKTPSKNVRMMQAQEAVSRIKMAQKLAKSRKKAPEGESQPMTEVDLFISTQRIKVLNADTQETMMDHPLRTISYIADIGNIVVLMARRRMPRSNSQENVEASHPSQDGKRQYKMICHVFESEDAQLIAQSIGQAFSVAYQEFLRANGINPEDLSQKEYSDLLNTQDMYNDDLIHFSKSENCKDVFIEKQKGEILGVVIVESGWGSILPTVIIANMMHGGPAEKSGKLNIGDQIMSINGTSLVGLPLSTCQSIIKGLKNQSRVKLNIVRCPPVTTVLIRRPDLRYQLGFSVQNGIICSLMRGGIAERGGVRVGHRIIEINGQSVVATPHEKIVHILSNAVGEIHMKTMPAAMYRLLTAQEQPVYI
Photoreceptor-specific nuclear receptor, sequence (Q9Y5X4 whole entry): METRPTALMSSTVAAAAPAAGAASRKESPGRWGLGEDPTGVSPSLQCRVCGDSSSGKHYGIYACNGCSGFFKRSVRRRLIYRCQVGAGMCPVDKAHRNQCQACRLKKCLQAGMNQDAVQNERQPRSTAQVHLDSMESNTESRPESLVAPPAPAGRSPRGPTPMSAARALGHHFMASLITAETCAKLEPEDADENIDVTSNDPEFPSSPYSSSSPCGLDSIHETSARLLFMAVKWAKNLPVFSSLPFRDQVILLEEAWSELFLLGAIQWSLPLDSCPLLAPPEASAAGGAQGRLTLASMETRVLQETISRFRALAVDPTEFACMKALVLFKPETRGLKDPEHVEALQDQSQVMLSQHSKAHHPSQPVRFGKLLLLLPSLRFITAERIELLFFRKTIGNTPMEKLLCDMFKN
Eukaryotic translation initiation factor 4E, sequence (P63073 whole entry, the tested form may be a part): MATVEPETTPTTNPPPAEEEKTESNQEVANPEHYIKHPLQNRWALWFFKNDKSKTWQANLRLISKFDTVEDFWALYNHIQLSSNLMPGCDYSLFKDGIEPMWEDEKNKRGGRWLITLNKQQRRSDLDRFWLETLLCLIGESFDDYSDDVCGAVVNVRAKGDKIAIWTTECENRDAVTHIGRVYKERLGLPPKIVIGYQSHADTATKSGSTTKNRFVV
Tyrosyl-DNA phosphodiesterase 2, sequence (O95551 whole entry): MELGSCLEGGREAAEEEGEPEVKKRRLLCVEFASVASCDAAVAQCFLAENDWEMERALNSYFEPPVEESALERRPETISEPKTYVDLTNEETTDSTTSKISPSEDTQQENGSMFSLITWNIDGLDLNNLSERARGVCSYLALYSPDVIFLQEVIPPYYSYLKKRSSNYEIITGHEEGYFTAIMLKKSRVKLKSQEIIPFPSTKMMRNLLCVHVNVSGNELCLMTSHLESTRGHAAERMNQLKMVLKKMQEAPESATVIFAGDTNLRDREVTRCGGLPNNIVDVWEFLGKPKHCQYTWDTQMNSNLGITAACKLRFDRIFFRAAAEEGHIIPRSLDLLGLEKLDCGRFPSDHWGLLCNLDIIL
Genome polyprotein, sequence (P29990 2492-3391 limits assumed): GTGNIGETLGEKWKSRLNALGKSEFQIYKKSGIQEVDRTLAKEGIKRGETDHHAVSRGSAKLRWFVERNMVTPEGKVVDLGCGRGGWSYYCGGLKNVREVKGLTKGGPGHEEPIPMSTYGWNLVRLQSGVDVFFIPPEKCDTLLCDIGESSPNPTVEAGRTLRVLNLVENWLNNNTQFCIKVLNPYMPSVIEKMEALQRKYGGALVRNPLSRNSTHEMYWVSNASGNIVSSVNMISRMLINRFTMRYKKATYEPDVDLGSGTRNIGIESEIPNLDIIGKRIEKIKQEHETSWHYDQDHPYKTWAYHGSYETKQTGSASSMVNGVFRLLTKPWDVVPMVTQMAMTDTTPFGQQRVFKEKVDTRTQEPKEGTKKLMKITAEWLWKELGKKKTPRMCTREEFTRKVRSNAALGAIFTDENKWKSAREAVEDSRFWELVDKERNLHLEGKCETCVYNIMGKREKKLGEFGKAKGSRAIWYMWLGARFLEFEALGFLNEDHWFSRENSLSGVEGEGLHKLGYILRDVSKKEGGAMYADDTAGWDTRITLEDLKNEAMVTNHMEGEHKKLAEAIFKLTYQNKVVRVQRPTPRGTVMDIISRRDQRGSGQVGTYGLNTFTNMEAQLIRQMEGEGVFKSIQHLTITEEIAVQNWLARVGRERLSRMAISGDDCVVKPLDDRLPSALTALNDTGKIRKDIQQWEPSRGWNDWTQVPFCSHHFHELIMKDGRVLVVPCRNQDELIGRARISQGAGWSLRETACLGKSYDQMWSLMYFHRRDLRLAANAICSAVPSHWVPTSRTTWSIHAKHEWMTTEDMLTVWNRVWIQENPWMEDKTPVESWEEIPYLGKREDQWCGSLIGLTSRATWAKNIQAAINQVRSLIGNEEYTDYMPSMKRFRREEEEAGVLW

On to `O=C(Nc1ccccc1Cl)/C(Cl)=C(\Cl)[S+]([O-])c1ccccc1` (stereo unspecified), for which the IC50 is 61.9 µM (inactive) in experiment [1]; 10.3 µM (not active) in experiment [3]; 2.92 µM (active) in experiment [4]; 4.66 µM (active) on Fatty acid synthase; 1.18 µM (active) in the experiment with CHO. For the same compound, the AC50 in experiment [2] was 10.8 µM (active); with INS1 it was 2.07 µM (active). Further, the EC50 in experiment [5] was 3.56 µM (active).

For `O=C(NC1(O)C(=O)c2ccccc2C1=O)c1ccccc1`, the IC50 in [6] was 4.39 µM (active); in [7], 3.27 µM (active).

In the case of `Cc1cc(C)nc(/N=c2/ssnc2Cl)c1`, the EC50 in experiment [8] is 25.8 µM (active). For the same compound, the IC50 in experiment [9] was > 50 µM (inactive).

As to `Cc1ccc(C)c(S(=O)(=O)/N=C2\C=C(NS(=O)(=O)c3ccccc3)C(=O)c3ccccc32)c1`, the results for the IC50 at Genome polyprotein and at Protein skinhead-1 were 97.8 µM (active) and > 100 µM (inactive), respectively.

As for `CCCCCCCCCCCCCCCCn1cc[n+](C)c1`, the values for the IC50 (at Cysteine protease ATG4B; in experiment [12]) were 4.47 µM (active) and 12.9 µM (active), respectively. For the same compound, the AC50 was 22 µM (active) in [10], 5.2 µM (active) in experiment [13] and 5.26 µM (active) in experiment [14]. The EC50 in experiment [11] (NIH3T3) is 8.99 µM (active); in experiment [11] (nih3t3), 8.81 µM (active).

For orientation: IC50 means the concentration that inhibits the measured activity by half. For orientation: AC50 means the concentration at which the activity in the assay is half-maximal. Usually EC50 stands for the concentration needed to bring the measured effect to its halfway point.
